Data as given in patent US20070128217A1 (priority 2003, published 2007).

Columns and labels:
[1] = tested on: control sera (pooled serum of ten healthy LUMC hospital workers; commercial negative donor pooled serum from the Dutch bloodbank); format: binding, human; parameters: Binding of Control serum LUMC to linear peptides / Binding of Control serum Blood-bank to linear peptides / Binding of Control serum LUMC to looped peptides / Binding of Control Serum Blood-Bank to Looped peptides / Binding of Control serum LUMC to linear peptides of the protein M of SARS-CoV Urbani / Binding of Control serum Blood-bank to linear peptides of the protein M of SARS-CoV Urbani / Binding of Control serum LUMC to looped peptides of the protein M of SARS-CoV Urbani / Binding of Control Serum Blood-Bank to Looped peptides of the protein M of SARS-CoV Urbani: unit not given here
[2] = tested on: rabbit serum obtained by immunizing a rabbit with the SARS-CoV strain Frankfurt 1; format: binding; parameters: Binding of a rabbit serum to linear peptides / Binding of a rabbit serum to looped peptides / Rabbit serum linear peptides / Rabbit serum looped peptides / Binding of a rabbit serum to linear peptides of protein N of SARS-CoV Urbani (Rabbit serum linear peptides) / Binding of a rabbit serum to looped/cyclic peptides of protein N of SARS-CoV Urbani (Rabbit serum looped peptides): unit not given here
[3] = tested on: antibodies in sera from SARS patients (sera 1a, 1b, 2, 6, 37, 62, London, SARS-yellow, SARS-green); format: binding, human; parameters: Binding of serum 6 to linear peptides of protein X1 of SARS-CoV Urbani / Binding of serum 37 to linear peptides of protein X1 of SARS-CoV Urbani / Binding of serum 6 to looped/cyclic peptide (PEPSCAN-ELISA) / Binding of serum 37 to looped/cyclic peptide (PEPSCAN-ELISA) / Binding of serum 37 to looped/cyclic peptides of protein X1 of SARS-CoV Urbani / Binding of serum 6 to linear peptides of protein X2 / Binding of serum 37 to linear peptides of protein X2 / Binding of serum 37 to looped/cyclic peptides of protein X2 of SARS-CoV Urbani / Binding of serum 6 to linear peptides of protein M of SARS-CoV Urbani / Binding of serum 37 to linear peptides of protein M of SARS-CoV Urbani / Binding of serum 6 to looped/cyclic peptides of protein M of SARS-CoV Urbani / Binding of serum 37 to looped/cyclic peptides of protein M of SARS-CoV Urbani / Binding of serum 6 to linear peptides of protein X3 of SARS-CoV Urbani / Binding of serum 37 to linear peptides of protein X3 of SARS-CoV Urbani / Binding of serum 37 to looped/cyclic peptides of protein X3 of SARS-CoV Urbani / Binding of serum 6 to linear peptides of protein X4 of SARS-CoV Urbani / Binding of serum 37 to linear peptides of protein X4 of SARS-CoV Urbani / Binding of serum 37 to looped/cyclic peptides of protein X4 of SARS-CoV Urbani / Binding of serum 6 to linear peptides of protein X5 of SARS-CoV Urbani / Binding of serum 37 to linear peptides of protein X5 of SARS-CoV Urbani / Binding of serum 37 to looped/cyclic peptides of protein X5 of SARS-CoV Urbani / Binding of serum 6 to linear peptides of protein N of SARS-CoV Urbani / Binding of serum 37 to linear peptides of protein N of SARS-CoV Urbani / Binding of serum 6 to linear peptide (PEPSCAN-ELISA) / Binding of serum 1a to looped/cyclic peptides of protein N of SARS-CoV Urbani / Binding of serum 1b to looped/cyclic peptides of protein N of SARS-CoV Urbani / Binding of serum 2 to looped/cyclic peptides of protein N of SARS-CoV Urbani / Binding of serum 6 to looped/cyclic peptides of protein N of SARS-CoV Urbani / Binding of serum 37 to looped/cyclic peptides of protein N of SARS-CoV Urbani / Binding of serum 62 to looped/cyclic peptides of protein N of SARS-CoV Urbani / Binding of serum London to looped/cyclic peptides of protein N of SARS-CoV Urbani / Binding of serum SARS-green to looped/cyclic peptides of protein N of SARS-CoV Urbani: unit not given here

TLIVFTSCELYHYQE
Binding of Control Serum Blood-Bank to Looped peptides [1]: 0.7
Binding of Control serum Blood-bank to linear peptides [1]: 0.7
Binding of Control serum LUMC to linear peptides [1]: 0.8
Binding of Control serum LUMC to looped peptides [1]: 1.0
Rabbit serum linear peptides [2]: 0.5
Rabbit serum looped peptides [2]: 0.8
Binding of serum 1a to linear peptides of protein X4 of SARS-CoV Urbani [3]: 0.8
Binding of serum 1a to looped/cyclic peptides of protein X4 of SARS-CoV Urbani [3]: 0.8
Binding of serum 1b to linear peptides of protein X4 of SARS-CoV Urbani [3]: 0.8
Binding of serum 1b to looped/cyclic peptides of protein X4 of SARS-CoV Urbani [3]: 0.8
Binding of serum 2 to linear peptides of protein X4 of SARS-CoV Urbani [3]: 0.5
Binding of serum 2 to looped/cyclic peptides of protein X4 of SARS-CoV Urbani [3]: 0.8
Binding of serum 6 to linear peptides of protein X4 of SARS-CoV Urbani [3]: 0.6
Binding of serum 6 to looped/cyclic peptides of protein X4 of SARS-CoV Urbani [3]: 0.6
Binding of serum 37 to linear peptides of protein X4 of SARS-CoV Urbani [3]: 0.9
Binding of serum 37 to looped/cyclic peptides of protein X4 of SARS-CoV Urbani [3]: 0.9
Binding of serum 62 to linear peptides of protein X4 of SARS-CoV Urbani [3]: 0.9
Binding of serum 62 to looped/cyclic peptides of protein X4 of SARS-CoV Urbani [3]: 0.8
Binding of serum London to linear peptides of protein X4 of SARS-CoV Urbani [3]: 0.8
Binding of serum London to looped/cyclic peptides of protein X4 of SARS-CoV Urbani [3]: 0.3
Binding of serum SARS-green to linear peptides of protein X4 of SARS-CoV Urbani [3]: 1.1
Binding of serum SARS-green to looped/cyclic peptides of protein X4 of SARS-CoV Urbani [3]: 1.0
Binding of serum SARS-yellow to linear peptides of protein X4 of SARS-CoV Urbani [3]: 0.6
Binding of serum SARS-yellow to looped/cyclic peptides of protein X4 of SARS-CoV Urbani [3]: 0.9

QVTIAEILIIIMRTF
Binding of Control Serum Blood-Bank to Looped peptides of the protein X3 of SARS-CoV Urbani [1]: 0.9
Binding of Control serum Blood-bank to linear peptides of the protein X3 of SARS-CoV Urbani [1]: 0.7
Binding of Control serum LUMC to linear peptides of the protein X3 of SARS-CoV Urbani [1]: 0.7
Binding of Control serum LUMC to looped peptides of the protein X3 of SARS-CoV Urbani [1]: 0.7
Rabbit serum linear peptides [2]: 0.3
Rabbit serum looped peptides [2]: 0.6
Binding of serum 1a to linear peptides of protein X3 of SARS-CoV Urbani [3]: 0.7
Binding of serum 1a to looped/cyclic peptides of protein X3 of SARS-CoV Urbani [3]: 0.7
Binding of serum 1b to linear peptides of protein X3 of SARS-CoV Urbani [3]: 0.4
Binding of serum 1b to looped/cyclic peptides of protein X3 of SARS-CoV Urbani [3]: 0.3
Binding of serum 2 to linear peptides of protein X3 of SARS-CoV Urbani [3]: 0.5
Binding of serum 2 to looped/cyclic peptides of protein X3 of SARS-CoV Urbani [3]: 0.5
Binding of serum 6 to linear peptides of protein X3 of SARS-CoV Urbani [3]: 0.5
Binding of serum 6 to looped/cyclic peptides of protein X3 of SARS-CoV Urbani [3]: 0.5
Binding of serum 37 to linear peptides of protein X3 of SARS-CoV Urbani [3]: 0.4
Binding of serum 37 to looped/cyclic peptides of protein X3 of SARS-CoV Urbani [3]: 0.6
Binding of serum 62 to linear peptides of protein X3 of SARS-CoV Urbani [3]: 0.7
Binding of serum 62 to looped/cyclic peptides of protein X3 of SARS-CoV Urbani [3]: 0.4
Binding of serum London to linear peptides of protein X3 of SARS-CoV Urbani [3]: 0.7
Binding of serum London to looped/cyclic peptides of protein X3 of SARS-CoV Urbani [3]: 0.2
Binding of serum SARS-green to linear peptides of protein X3 of SARS-CoV Urbani [3]: 0.4
Binding of serum SARS-green to looped/cyclic peptides of protein X3 of SARS-CoV Urbani [3]: 0.2
Binding of serum SARS-yellow to linear peptides of protein X3 of SARS-CoV Urbani [3]: 0.2
Binding of serum SARS-yellow to looped/cyclic peptides of protein X3 of SARS-CoV Urbani [3]: 0.7
